Measurements reported in ChEMBL document CHEMBL5584305, “Cladoic Acid, an Anti-Trypanosoma cruzi Polyketide from Cladosporium sp. TP-F2020” (J Nat Prod, 2024).
Activity calls are given as the source filed them. The calls are words filed in the database; no cut-off is given here.

Key:
Kocuria rhizophila = assay: Antimicrobial activity against Kocuria rhizophila ATCC 9341 at 100 microg/ml incubated for 20 hrs by liquid microculture method; assay type: functional, organism-based; conditions: dose 100.0 µg/ml
Staphylococcus aureus = assay: Antimicrobial activity against Staphylococcus aureus FDA209P JC-1 at 100 microg/ml incubated for 20 hrs by liquid microculture method; assay type: functional, organism-based; conditions: dose 100.0 µg/ml
Escherichia coli = assay: Antimicrobial activity against Escherichia coli NIHJ JC-2 at 100 microg/ml incubated for 20 hrs by liquid microculture method; assay type: functional, organism-based; conditions: dose 100.0 µg/ml
[1] = tested on: Agrobacterium radiobacter; assay: Antimicrobial activity against Rhizobium radiobacter NBRC14554 at 100 microg/ml incubated for 20 hrs by liquid microculture method; assay type: functional, organism-based; conditions: dose 100.0 µg/ml
Candida albicans = assay: Antimicrobial activity against Candida albicans NBRC0197 at 100 microg/ml incubated for 20 hrs by liquid microculture method; assay type: functional, organism-based; conditions: dose 100.0 µg/ml
[2] = tested on: Colletotrichum gloeosporioides; assay: Antimicrobial activity against Glomerella cingulata NBRC5907 at 100 microg/ml incubated for 20 hrs by liquid microculture method; assay type: functional, organism-based; conditions: dose 100.0 µg/ml
Trichophyton rubrum = assay: Antimicrobial activity against Trichophyton rubrum NBRC5467 at 100 microg/ml incubated for 20 hrs by liquid microculture method; assay type: functional, organism-based; conditions: dose 100.0 µg/ml
Saccharomyces cerevisiae = assay: Antimicrobial activity against Saccharomyces cerevisiae S100 at 100 microg/ml incubated for 20 hrs by liquid microculture method; assay type: functional, organism-based; conditions: dose 100.0 µg/ml
[3] = Cytotoxicity against mouse P388 cells at 100 uM; assay type: toxicity, cell-based
Trypanosoma cruzi [4] = assay: Antitrypanosomal activity against Trypanosoma cruzi epimastigote assessed as inhibition of proliferation by measuring cellular ATP level incubated for 24 hrs by Cell Titer-Glo 2.0 assay; assay type: functional, organism-based
Trypanosoma cruzi [5] = assay: Antitrypanosomal activity against Trypanosoma cruzi Tulahuen amastigotes infected in human HT-1080 cells assessed as inhibition of parasite growth incubated for 3 days by light microscopic analysis; assay type: functional, organism-based; conditions: HT-1080, 72 h

## C\C(=C/C=C/C=C/[C@H]1[C@@H](C)[C@H](O)[C@@H](O)[C@H]2[C@H](O)[C@@H](C)C[C@@H](C)[C@H]12)C(=O)O
Kocuria rhizophila
  Activity: inactive
Staphylococcus aureus
  Activity: inactive
Escherichia coli
  Activity: inactive
[1]
  Activity: inactive
Candida albicans
  Activity: inactive
[2]
  Activity: inactive
Trichophyton rubrum
  Activity: inactive
Saccharomyces cerevisiae
  Activity: inactive
[3]
  Activity: Non-Toxic
Trypanosoma cruzi [4]
  IC50: 46 µM
Trypanosoma cruzi [5]
  IC50: 27 µM
